Source: publication PMC4490028 (Cancer research, 2015)
Values belong to the compound of their own block, whether it stands above or below them.

Key:
Abcc3 = assay: Plasma and liver pharmacokinetics after oral sorafenib in Abcc3; format: in vivo, mouse; conditions: oral sorafenib 10 mg/kg; Abcc3(−/−) mice
[1] = cited from earlier work
Oatp1a/1b;Abcc3 = assay: Plasma and liver pharmacokinetics after oral sorafenib in Oatp1a/1b; format: in vivo, mouse; conditions: oral sorafenib 10 mg/kg; Oatp1a/1b;Abcc3(−/−) mice
Oatp1a/1b = assay: as above; format: in vivo, mouse; conditions: oral sorafenib 10 mg/kg; Oatp1a/1b(−/−) mice
Oatp1a/1b;Abcc2 = conditions: oral sorafenib 10 mg/kg; Oatp1a/1b;Abcc2(−/−) mice
[2] = tested on: mouse intestinal β-glucuronidases; assay: Ex vivo cecal incubations of SG; format: in vitro ADME; conditions: SG 2 µM, 6-hour period
[3] = Sorafenib plasma concentrations in FVB wildtype mice after oral sorafenib; conditions: sorafenib 10 mg/kg oral
human ABCC2 = human ABCC2 (Homo sapiens, UniProt Q92887); assay: In vitro vesicular transport, inside-out Sf9 vesicles expressing human ABCC2
Oatp1a/1b;Abcc2;Abcc3 = conditions: oral sorafenib 10 mg/kg; Oatp1a/1b;Abcc2;Abcc3(−/−) mice
[4] = format: in vivo, mouse; conditions: oral SG 10 mg/kg
rat Abcc2 = rat Abcc2 (Rattus norvegicus, UniProt Q63120); assay: In vitro vesicular transport, inside-out Sf9 vesicles expressing rat Abcc2; conditions: 5-min incubation, ATP 4 mM
Abcc2 [5] = assay: Pharmacokinetics
Abcc2 [6] = assay: Pharmacokinetics; conditions: after oral sorafenib 10 mg/kg
Abcc3;Abcc4 = assay: Plasma and liver pharmacokinetics after oral sorafenib in Abcc3; conditions: after oral sorafenib 10 mg/kg; Abcc3;Abcc4(−/−) mice
human ABCC3 = human ABCC3 (Homo sapiens, UniProt O15438); assay: In vitro vesicular transport, inside-out Sf9 vesicles expressing human ABCC3; format: in vitro ADME
mouse Abcc2 = mouse Abcc2 (Mus musculus, UniProt Q8VI47); assay: In vitro vesicular transport, inside-out Sf9 vesicles expressing mouse Abcc2; conditions: SG 10 µM, 5-min incubation, ATP 4 mM
Abcc4 = assay: Plasma and liver pharmacokinetics after oral sorafenib in Abcc4; conditions: after oral sorafenib 10 mg/kg; Abcc4(−/−) mice
human ABCC4 = target: T1, human ABCC4 (Homo sapiens, UniProt O15439); assay: In vitro vesicular transport, inside-out Sf9 vesicles expressing human ABCC4
T1 sequence (O15439 1-1325): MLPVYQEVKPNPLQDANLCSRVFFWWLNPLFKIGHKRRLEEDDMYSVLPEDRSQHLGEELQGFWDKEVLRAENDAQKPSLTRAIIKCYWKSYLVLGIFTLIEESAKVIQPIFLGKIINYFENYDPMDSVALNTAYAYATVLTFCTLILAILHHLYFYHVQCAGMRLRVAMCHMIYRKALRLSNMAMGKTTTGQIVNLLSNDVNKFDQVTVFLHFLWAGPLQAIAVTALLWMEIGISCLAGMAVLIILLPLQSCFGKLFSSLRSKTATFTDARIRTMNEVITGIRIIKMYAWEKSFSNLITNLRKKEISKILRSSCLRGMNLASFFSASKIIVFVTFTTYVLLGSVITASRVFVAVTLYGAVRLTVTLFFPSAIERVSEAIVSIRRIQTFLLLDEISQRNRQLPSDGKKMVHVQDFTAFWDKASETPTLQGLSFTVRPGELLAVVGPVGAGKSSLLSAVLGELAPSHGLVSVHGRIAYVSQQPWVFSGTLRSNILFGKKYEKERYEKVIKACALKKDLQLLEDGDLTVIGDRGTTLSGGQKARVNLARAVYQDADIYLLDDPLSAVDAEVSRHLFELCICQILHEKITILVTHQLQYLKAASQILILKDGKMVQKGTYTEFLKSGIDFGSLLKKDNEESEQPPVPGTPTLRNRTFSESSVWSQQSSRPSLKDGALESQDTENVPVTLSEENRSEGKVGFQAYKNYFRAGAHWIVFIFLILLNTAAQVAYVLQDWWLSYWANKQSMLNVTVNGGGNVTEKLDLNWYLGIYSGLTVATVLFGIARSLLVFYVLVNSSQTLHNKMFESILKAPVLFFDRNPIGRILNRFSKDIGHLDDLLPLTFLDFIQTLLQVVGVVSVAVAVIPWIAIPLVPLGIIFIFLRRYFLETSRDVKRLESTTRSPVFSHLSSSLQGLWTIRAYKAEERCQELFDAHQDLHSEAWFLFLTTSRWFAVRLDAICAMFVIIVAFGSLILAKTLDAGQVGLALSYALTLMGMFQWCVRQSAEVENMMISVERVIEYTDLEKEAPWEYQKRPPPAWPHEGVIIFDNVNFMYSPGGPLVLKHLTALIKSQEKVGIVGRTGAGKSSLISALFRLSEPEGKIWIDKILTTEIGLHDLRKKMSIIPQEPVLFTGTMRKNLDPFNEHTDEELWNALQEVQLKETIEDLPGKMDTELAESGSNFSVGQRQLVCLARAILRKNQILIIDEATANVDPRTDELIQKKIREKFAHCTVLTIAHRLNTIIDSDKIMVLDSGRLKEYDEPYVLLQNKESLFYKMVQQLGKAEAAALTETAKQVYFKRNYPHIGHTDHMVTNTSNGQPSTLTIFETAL

[7] = SG 10 µM, 5-min incubation, ATP 4 mM
[8] = increasing SG concentrations, 5 min, ATP 4 mM
[9] = read-out: Km of SG transport, increasing SG concentrations, 5 min, ATP 4 mM
[10] = rifampin 100 µM, SG 10 µM, 5 min

human ABCC2, sequence (Q92887 whole entry): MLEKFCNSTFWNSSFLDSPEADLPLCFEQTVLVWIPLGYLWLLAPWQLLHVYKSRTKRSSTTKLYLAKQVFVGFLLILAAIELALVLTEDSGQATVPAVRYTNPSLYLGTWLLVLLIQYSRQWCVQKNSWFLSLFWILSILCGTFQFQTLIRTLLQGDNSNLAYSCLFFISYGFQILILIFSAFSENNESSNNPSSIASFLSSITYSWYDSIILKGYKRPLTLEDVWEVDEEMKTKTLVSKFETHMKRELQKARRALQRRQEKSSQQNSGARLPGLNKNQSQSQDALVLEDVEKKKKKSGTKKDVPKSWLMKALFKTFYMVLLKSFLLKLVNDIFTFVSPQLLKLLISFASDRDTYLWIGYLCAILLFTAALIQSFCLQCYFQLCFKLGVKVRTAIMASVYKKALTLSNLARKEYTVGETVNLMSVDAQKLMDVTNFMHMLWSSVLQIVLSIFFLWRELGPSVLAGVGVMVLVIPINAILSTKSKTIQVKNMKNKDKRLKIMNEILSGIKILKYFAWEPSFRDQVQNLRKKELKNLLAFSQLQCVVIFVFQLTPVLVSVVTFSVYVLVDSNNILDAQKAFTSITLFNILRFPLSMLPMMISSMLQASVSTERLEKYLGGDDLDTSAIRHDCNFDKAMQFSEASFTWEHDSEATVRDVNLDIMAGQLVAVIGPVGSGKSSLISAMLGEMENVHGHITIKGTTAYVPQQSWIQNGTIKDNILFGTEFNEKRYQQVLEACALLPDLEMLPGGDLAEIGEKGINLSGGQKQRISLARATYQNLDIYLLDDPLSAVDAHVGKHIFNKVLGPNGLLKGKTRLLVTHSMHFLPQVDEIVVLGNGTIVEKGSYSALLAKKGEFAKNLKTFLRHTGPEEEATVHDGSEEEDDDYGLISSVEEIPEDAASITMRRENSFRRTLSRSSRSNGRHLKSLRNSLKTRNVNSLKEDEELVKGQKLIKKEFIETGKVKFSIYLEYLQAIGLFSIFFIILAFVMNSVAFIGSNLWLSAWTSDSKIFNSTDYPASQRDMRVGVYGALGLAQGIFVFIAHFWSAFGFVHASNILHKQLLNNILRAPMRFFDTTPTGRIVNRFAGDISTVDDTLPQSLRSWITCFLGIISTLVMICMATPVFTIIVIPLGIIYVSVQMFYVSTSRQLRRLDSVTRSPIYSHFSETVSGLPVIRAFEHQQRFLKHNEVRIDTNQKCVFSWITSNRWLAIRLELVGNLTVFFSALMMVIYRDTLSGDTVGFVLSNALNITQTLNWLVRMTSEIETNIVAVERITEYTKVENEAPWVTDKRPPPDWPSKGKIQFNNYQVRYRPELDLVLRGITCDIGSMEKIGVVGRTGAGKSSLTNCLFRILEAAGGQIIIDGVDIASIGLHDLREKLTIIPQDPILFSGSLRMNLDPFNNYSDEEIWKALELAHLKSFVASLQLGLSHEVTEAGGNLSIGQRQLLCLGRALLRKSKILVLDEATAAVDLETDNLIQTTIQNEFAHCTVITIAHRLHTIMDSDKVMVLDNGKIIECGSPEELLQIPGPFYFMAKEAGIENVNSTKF
human ABCC3, sequence (O15438 whole entry): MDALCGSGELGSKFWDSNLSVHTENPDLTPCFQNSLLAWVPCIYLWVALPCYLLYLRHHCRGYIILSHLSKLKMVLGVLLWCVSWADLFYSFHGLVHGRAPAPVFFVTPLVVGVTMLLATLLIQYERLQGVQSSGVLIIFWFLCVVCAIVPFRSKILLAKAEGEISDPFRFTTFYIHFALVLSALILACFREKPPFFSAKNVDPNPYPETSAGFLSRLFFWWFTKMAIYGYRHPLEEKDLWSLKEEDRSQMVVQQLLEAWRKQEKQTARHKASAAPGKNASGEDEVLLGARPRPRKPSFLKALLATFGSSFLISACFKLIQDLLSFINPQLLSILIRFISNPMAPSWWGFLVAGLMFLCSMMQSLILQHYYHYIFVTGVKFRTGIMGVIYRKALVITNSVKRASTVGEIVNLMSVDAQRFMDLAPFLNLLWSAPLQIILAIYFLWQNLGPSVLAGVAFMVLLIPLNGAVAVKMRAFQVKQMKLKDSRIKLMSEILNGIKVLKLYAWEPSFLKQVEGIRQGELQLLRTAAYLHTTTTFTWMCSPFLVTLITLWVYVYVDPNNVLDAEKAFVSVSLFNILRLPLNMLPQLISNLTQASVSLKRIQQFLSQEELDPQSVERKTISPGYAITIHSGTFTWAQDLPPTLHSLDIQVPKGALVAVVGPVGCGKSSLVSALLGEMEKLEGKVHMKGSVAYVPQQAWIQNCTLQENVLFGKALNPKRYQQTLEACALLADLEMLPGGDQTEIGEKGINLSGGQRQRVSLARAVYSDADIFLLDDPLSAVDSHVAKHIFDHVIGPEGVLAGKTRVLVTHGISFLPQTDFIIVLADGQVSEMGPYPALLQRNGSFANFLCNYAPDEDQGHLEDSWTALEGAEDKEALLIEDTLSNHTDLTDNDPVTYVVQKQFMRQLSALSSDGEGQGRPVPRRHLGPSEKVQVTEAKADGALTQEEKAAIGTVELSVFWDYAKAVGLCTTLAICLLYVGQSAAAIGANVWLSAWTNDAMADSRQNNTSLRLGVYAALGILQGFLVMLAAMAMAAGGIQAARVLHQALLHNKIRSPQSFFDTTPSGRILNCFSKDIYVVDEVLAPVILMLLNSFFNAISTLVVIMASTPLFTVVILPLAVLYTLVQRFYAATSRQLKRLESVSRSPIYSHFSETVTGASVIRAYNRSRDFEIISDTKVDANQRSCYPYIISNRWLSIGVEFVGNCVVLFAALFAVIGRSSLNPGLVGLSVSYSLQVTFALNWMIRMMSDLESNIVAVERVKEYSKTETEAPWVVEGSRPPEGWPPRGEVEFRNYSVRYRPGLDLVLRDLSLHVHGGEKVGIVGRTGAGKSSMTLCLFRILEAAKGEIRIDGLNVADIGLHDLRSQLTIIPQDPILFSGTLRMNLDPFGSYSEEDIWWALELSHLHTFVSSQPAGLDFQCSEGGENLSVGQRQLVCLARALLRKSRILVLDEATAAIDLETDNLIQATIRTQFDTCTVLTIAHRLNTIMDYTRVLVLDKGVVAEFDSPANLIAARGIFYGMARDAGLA
rat Abcc2, sequence (Q63120 whole entry): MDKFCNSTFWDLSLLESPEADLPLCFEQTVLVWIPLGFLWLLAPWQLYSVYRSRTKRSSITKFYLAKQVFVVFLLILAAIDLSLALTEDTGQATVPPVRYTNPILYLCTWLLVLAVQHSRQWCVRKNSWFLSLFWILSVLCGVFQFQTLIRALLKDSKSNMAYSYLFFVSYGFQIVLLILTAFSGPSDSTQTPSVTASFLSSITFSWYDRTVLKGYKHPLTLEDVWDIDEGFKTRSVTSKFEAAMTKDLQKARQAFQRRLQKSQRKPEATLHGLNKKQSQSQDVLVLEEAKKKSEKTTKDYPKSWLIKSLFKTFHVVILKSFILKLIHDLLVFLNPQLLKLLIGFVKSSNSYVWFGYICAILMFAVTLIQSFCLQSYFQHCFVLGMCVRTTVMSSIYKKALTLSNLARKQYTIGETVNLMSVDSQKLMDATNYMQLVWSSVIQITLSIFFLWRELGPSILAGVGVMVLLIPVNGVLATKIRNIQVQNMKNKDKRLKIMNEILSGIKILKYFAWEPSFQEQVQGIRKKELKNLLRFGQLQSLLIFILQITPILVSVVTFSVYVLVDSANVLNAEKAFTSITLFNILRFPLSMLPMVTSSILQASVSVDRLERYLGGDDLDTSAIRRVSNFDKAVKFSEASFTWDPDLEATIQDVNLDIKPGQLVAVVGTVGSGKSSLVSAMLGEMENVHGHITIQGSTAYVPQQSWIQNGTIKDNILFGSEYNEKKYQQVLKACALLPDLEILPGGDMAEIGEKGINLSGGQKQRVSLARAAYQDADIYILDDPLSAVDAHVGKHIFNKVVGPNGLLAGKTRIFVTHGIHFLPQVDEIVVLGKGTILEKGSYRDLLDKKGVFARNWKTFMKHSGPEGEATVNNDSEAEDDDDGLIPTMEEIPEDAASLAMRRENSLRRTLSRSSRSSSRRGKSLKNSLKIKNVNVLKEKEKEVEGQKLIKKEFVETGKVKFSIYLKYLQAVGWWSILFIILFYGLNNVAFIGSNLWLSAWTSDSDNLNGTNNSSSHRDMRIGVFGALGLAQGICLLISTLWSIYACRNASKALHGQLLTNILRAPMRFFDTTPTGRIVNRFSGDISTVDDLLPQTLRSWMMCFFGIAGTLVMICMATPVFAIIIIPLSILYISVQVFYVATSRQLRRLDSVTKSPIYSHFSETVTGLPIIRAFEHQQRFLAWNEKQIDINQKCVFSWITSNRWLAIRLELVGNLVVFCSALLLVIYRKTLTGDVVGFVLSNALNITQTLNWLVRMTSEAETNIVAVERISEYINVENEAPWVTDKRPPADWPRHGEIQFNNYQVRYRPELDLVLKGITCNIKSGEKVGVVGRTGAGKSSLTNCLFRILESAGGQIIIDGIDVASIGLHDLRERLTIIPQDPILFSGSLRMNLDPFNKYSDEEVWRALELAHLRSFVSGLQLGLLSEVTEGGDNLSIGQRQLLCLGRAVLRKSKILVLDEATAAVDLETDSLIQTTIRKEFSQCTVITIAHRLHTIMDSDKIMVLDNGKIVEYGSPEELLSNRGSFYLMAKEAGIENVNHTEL

liver levels of sorafenib versus wildtype (Abcc3): similar
plasma levels of sorafenib versus wildtype (Abcc3): not substantially altered
liver levels of sorafenib versus wildtype (Oatp1a/1b;Abcc3): similar
plasma levels of sorafenib versus wildtype (Oatp1a/1b;Abcc3): not substantially altered
liver levels of sorafenib versus wildtype (Oatp1a/1b): similar
plasma levels of sorafenib versus wildtype (Oatp1a/1b): not substantially altered
plasma sorafenib exposure, lower than wildtype (Oatp1a/1b): ~ 25%
plasma and liver levels of sorafenib (Oatp1a/1b;Abcc2): not substantially altered
sorafenib levels formed from SG in crude suspension of cecal content [2]: corresponding increase
sorafenib plasma steady-state concentrations [3]: 6 to 10 µM
sorafenib uptake relative to control vesicles (human ABCC2; sorafenib 10 µM, 5-min incubation, ATP 4 mM): moderately increased
plasma and liver levels of sorafenib (Oatp1a/1b;Abcc2;Abcc3): not substantially altered
time until sorafenib was detected in plasma after SG administration ([4]; initial study): 8 h
sorafenib peak levels in plasma of vehicle-pretreated mice ([4]; at 8 hours after SG administration): 226 to 897 ng/mL
sorafenib levels in plasma of neomycin-pretreated mice ([4]; neomycin 200 mg/kg twice daily for 5 days, 8 to 24 hours): below the limit of quantification
time of sorafenib peak levels after SG administration ([4]; vehicle-pretreated mice): 8 h
transport of sorafenib (rat Abcc2; sorafenib 10 µM): weakly
biliary output of sorafenib, Abcc2(−/−) compared to wildtype mice (Abcc2 [5]; oral sorafenib 10 mg/kg): not associated with altered
liver uptake of sorafenib, Abcc2(−/−) compared to wildtype mice (Abcc2 [5]; oral sorafenib 10 mg/kg): not associated with altered
plasma disposition of sorafenib, Abcc2(−/−) compared to wildtype mice (Abcc2 [5]; oral sorafenib 10 mg/kg): not associated with altered
increase in plasma levels in Abcc2(−/−) versus wildtype rats (Abcc2 [6]): ~ 2 fold
Compound: CNC(=O)c1cc(Oc2ccc(NC(=O)Nc3ccc(Cl)c(C(F)(F)F)c3)cc2)ccn1 [sorafenib]
average sorafenib plasma steady-state concentrations ([1]; adults and children treated at 400 mg or 200 mg/m^2 twice daily): 10 µM
decrease of systemic exposure to sorafenib by neomycin treatment ([1]; neomycin treatment in humans): more than 50%

Compound: sorafenib-glucuronide [SG]
concentrations of SG in plasma and liver, effect of Abcc4 deficiency (Abcc3;Abcc4): not substantially affected
uptake of SG relative to control vesicles (human ABCC3; [7]): efficiently increased
transport efficiency, lower than that observed for ABCC2 (human ABCC3; SG transport): about 7 fold
Vmax of SG transport (human ABCC3; [8]): 196 ± 44 pmol/min/mg
Km (human ABCC3; [9]): 186 ± 72 µM
uptake of SG relative to control vesicles (mouse Abcc2): efficiently increased
uptake of SG relative to control vesicles (human ABCC2; [7]): efficiently increased
maximal velocity (Vmax) of SG transport (human ABCC2; [8]): 155 ± 11 pmol/min/mg
uptake of SG relative to control vesicles (rat Abcc2; SG 10 µM): efficiently increased
SG liver-to-plasma ratio in Abcc2(−/−) versus wildtype mice (Abcc2 [5]; after oral sorafenib 10 mg/kg): decreased
increase in SG liver concentrations in Abcc2(−/−) versus wildtype mice (Abcc2 [5]; after oral sorafenib 10 mg/kg): ~ 3 fold
increase of plasma levels of SG in Abcc2(−/−) versus wildtype mice (Abcc2 [5]; after oral sorafenib 10 mg/kg): ~ 350 fold
reduction of biliary output of SG in Abcc2(−/−) versus wildtype mice (Abcc2 [5]; after oral sorafenib 10 mg/kg, bile collected for 2 hours): ~ 12 fold
urinary excretion (Abcc2 [5]; after oral sorafenib 10 mg/kg, irrespective of Abcc2 status): minor route of elimination
concentrations of SG in plasma and liver, effect of Abcc4 deficiency (Abcc4): not substantially affected
SG in bile of wildtype or Abcc2(−/−) rats (Abcc2 [6]): not detected
SG in plasma of wildtype or Abcc2(−/−) rats (Abcc2 [6]): not detected
uptake of SG relative to control vesicles (human ABCC4; [7]): efficiently increased
transport efficiency, lower than that observed for ABCC2 (human ABCC4; SG transport): about 7 fold
Vmax of SG transport (human ABCC4; [8]): 221 ± 11 pmol/min/mg
Km (human ABCC4; [9]): 146 ± 14 µM

inhibition of ABCC3-mediated SG uptake (human ABCC3; [10]): sensitive to inhibition
inhibition of ABCC2-mediated SG uptake (human ABCC2; [10]): sensitive to inhibition
inhibition of ABCC4-mediated SG uptake (human ABCC4; [10]): sensitive to inhibition
Compound: CO[C@H]1/C=C/O[C@@]2(C)Oc3c(C)c(O)c4c(O)c(c(/C=N/N5CCN(C)CC5)c(O)c4c3C2=O)NC(=O)/C(C)=C\C=C\[C@H](C)[C@H](O)[C@@H](C)[C@@H](O)[C@@H](C)[C@H](OC(C)=O)[C@@H]1C [rifampin]

Compound: CNC(=O)c1cc(Oc2ccc(NC(=O)Nc3ccc(Cl)c(C(F)(F)F)c3)cc2)cc[n+]1[O-] [sorafenib-N-oxide]
increase in plasma levels in Abcc2(−/−) versus wildtype rats (Abcc2 [6]): ~ 2 fold
